US20110207729A1, “BICYCLIC ACYLGUANIDINE DERIVATIVE” (ASTELLAS PHARMA INC., priority 2007, published 2011)

Each molecule was assayed on Male ICR mouse (assay: Hyperactivity caused by MK-801 in mice, infrared motion measurement). Details: dose of 0.03 mg/kg, oral; MK-801 0.3 mg/kg i.p.; P<0.05.
Format: in vivo
Procedure: (§1) Various Drug Evaluations on a Drug for Increasing the Motion of Mice (methamphetamine, MK-801) (Radiated Infrared Motion Measurement)
(§2) An effect of the compound (I) on improvement on schizophrenia by was evaluated by measuring the inhibited motion through the administration of the compound in a model having a symptom caused by methamphetamine (which is hereinafter simply referred to MAP) and MK-801.
(§3) An animal was taken out of a breeding cage, orally administered with a compound to be tested, and then placed into a cage for breeding. After 30 minutes, the animal was put into a cage for measurement, and the motion with the compound to be tested alone was measured. Further, after 30 to 90 minutes, the animal was taken out, and intraperitoneally administered with a drug for increasing the motion (MAP; 1 mg/kg or MK-801; 0.3 mg/kg, dissolved in a physiological saline, respectively). Then, the motion for a certain period of time (60 minutes) was measured by using a motion measurement device (CompACT AMS from Muromachi Kikai Co., Ltd.) by means of an infrared sensor.
(§4) For a normal mouse (a mouse administered with physiological saline) and a mouse administered with a drug for increasing the motion, a Student's T test was performed for evaluation for each interval. […]

Q: Which “inhibition of hyperactivity caused by MK-801” value does the source give for `COc1ccccc1C1=CCCc2ccc(C(=O)N=C(N)N)cc21` [Example 2-06] here?
A: significantly inhibited

Same assay, conditions: dose of 0.1 mg/kg, oral; MK-801 0.3 mg/kg i.p.; P<0.05

Q: For `Cc1ccc(C2=CCOc3ccc(C(=O)N=C(N)N)cc32)c(F)c1` [Example 1-47], which “inhibition of hyperactivity caused by MK-801” value is on record?
A: significantly inhibited

These molecules were tested against T1, human 5-HT5A receptor (Homo sapiens, UniProt P47898) (assay: Test on a human 5-HT5A receptor binding inhibition ([3H]5-CT)). Details: membrane from HEK293 cells expressing human 5-HT5A receptor; Ki calculated from IC50 and Kd 4.95 nM.
T1 construct: expressed in transfected cells; membrane preparation
T1 sequence (P47898 whole entry): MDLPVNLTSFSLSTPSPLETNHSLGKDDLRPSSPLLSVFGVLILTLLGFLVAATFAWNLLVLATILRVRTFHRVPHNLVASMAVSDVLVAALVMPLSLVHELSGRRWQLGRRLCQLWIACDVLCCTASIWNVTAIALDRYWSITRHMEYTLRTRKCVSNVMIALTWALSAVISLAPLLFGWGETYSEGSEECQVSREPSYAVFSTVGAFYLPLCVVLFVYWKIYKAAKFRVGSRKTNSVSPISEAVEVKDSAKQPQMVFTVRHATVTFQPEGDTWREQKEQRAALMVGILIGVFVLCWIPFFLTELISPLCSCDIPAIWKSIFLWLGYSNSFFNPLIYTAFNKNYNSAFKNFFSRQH
Outline: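 Membranes came from G418-selected HEK293 cells expressing human 5-HT5A, in Tris pH 7.4 with MgSO4 and EDTA. They were preincubated 15 min at RT with compound, then 2 nM [3H]5-CT solution was added for 60 min at 37 °C, followed by GF/C filtration and counting. IC50 used 1 µM 5-CT as 100%; Ki by Cheng–Prusoff (Kd 4.95 nM, Scatchard).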

Q: For `COc1ccccc1C1=CCCc2ccc(C(=O)N=C(N)N)cc21` [Example 2-06], which Ki is on record?
A: 0.0003 to 0.003 µM

Q: How did the Ki turn out when `Cc1ccc(C2=CCOc3ccc(C(=O)N=C(N)N)cc32)c(F)c1` [Example 1-47] was run?
A: 0.0003 to 0.003 µM

Q: `NC(N)=NC(=O)c1ccc2c(c1)C(c1ccccc1)=CCC2` [Example 2-37] was tested. Which Ki did it give?
A: 0.0003 to 0.003 µM

Q: With `NC(N)=NC(=O)c1ccc2c(c1)C(c1cccnc1Cl)=CCC2` [Example 2-176] as the molecule, how does the Ki read?
A: 0.003 to 0.03 µM

Q: For `COc1cc(C#N)ccc1C1=CCCc2ccc(C(=O)N=C(N)N)cc21` [Example 2-55], which Ki is on record?
A: 0.0003 to 0.003 µM

Q: `NC(N)=NC(=O)c1ccc2c(c1)C(c1ccccc1)CCC2` (stereo not drawn) [Example 3-02] was tested. Which Ki did it give?
A: 0.003 to 0.03 µM

Q: How did the Ki turn out when `NC(N)=NC(=O)c1ccc2c(c1)C(c1ccccc1OC(F)(F)F)=CCC2` [Example 2-98] was run?
A: 0.03 to 0.3 µM

Q: `CC1C=C(c2cccnc2Cl)c2cc(C(=O)N=C(N)N)ccc2O1` (stereo not drawn) [Example 1-127] was tested. Which Ki did it give?
A: 0.03 to 0.3 µM

Q: `NC(N)=NC(=O)c1ccc2c(c1)C(c1ccc(Cl)cc1F)=CCC2` [Example 2-67] was tested. Which Ki did it give?
A: 0.0003 to 0.003 µM

Q: With `NC(N)=NC(=O)c1ccc2scc(-c3c(F)cc(F)cc3F)c2c1` [Example 3-14] as the molecule, how does the Ki read?
A: 0.0003 to 0.003 µM

Q: How did the Ki turn out when `COc1cccc(C2=CCCc3ccc(C(=O)N=C(N)N)cc32)c1C#N` [Example 2-181] was run?
A: 0.03 to 0.3 µM

Q: How did the Ki turn out when `COc1ccccc1C1=CCOc2c(F)cc(C(=O)N=C(N)N)cc21` [Example 1-86] was run?
A: 0.003 to 0.03 µM

Q: With `NC(N)=NC(=O)c1ccc2c(c1)C(c1ccc(F)c(F)c1F)=CCC2` [Example 2-95] as the molecule, how does the Ki read?
A: 0.0003 to 0.003 µM

Q: `NC(N)=NC(=O)c1ccc2c(c1)C(c1cccc(C(F)(F)F)c1)=CCO2` [Example 1-52] was tested. Which Ki did it give?
A: 0.003 to 0.03 µM

Q: `NC(N)=NC(=O)c1ccc2c(c1)C(c1ccccc1)=CCCO2` [Example 3-10] was tested. Which Ki did it give?
A: 0.003 to 0.03 µM

Q: How did the Ki turn out when `CC1(C)C=C(c2ccccc2)c2cc(C(=O)N=C(N)N)ccc2O1` [Example 1-04] was run?
A: 0.03 to 0.3 µM

Q: `NC(N)=NC(=O)c1ccc2scc(-c3ccccc3O)c2c1` [Example 3-29] was tested. Which Ki did it give?
A: 0.0003 to 0.003 µM

Q: `N#Cc1cc(F)ccc1C1=CCOc2ccc(C(=O)N=C(N)N)cc21` [Example 1-48] was tested. Which Ki did it give?
A: 0.003 to 0.03 µM

Q: With `N#Cc1ccccc1C1=CCOc2ccc(C(=O)N=C(N)N)cc21` [Example 1-21] as the molecule, how does the Ki read?
A: 0.003 to 0.03 µM

Q: For `NC(N)=NC(=O)c1ccc2c(c1)C(c1ccccc1CO)=CCC2` [Example 2-35], which Ki is on record?
A: 0.03 to 0.3 µM

Q: Which Ki does the source give for `NC(N)=NC(=O)c1ccc2c(c1)C(c1ccoc1)=CCC2` [Example 2-01, N-(diaminomethylene)-8-(3-furyl)-5,6-dihydronaphthalene-2-carboxamide methane sulfonate] here?
A: 0.003 to 0.03 µM

Q: `CC1C=C(c2ccc(F)c(F)c2)c2cc(C(=O)N=C(N)N)ccc2O1` (stereo not drawn) [Example 1-146] was tested. Which Ki did it give?
A: 0.03 to 0.3 µM

Q: With `CC1C=C(c2ccncc2)c2cc(C(=O)N=C(N)N)ccc2O1` (stereo not drawn) [Example 1-133] as the molecule, how does the Ki read?
A: 0.03 to 0.3 µM

Q: With `CCCC1=C(c2ccccc2)c2cc(C(=O)N=C(N)N)ccc2CC1` [Example 2-116] as the molecule, how does the Ki read?
A: 0.03 to 0.3 µM

Q: Which Ki does the source give for `Cc1cc(C)c(C2=CCCc3ccc(C(=O)N=C(N)N)cc32)c(C)c1` [Example 2-69] here?
A: 0.003 to 0.03 µM

Q: With `COc1ccc(C2=CCCc3ccc(C(=O)N=C(N)N)cc32)c(F)c1` [Example 2-85] as the molecule, how does the Ki read?
A: 0.0003 to 0.003 µM

Q: How did the Ki turn out when `CC1(C)CCC(c2c(F)cc(F)cc2F)c2cc(C(=O)N=C(N)N)ccc21` (stereo not drawn) [Example 3-34] was run?
A: 0.03 to 0.3 µM

Q: How did the Ki turn out when `NC(N)=NC(=O)c1ccc2c(c1)C(c1ccc(C(F)(F)F)cc1C(F)(F)F)=CCC2` [Example 2-117] was run?
A: 0.03 to 0.3 µM

Q: Which Ki does the source give for `NC(N)=NC(=O)c1ccc2c(c1)C(c1ccccc1)=C(F)CC2` [Example 2-43] here?
A: 0.0003 to 0.003 µM

What follows are molecules tested on Male ddY mouse (assay: Spontaneous alternation behavior (Y-maze) impaired by Scoporamine in mice). Details: dose of 0.03 mg/kg, oral, Scoporamine 0.5 mg/kg i.p., p<0.05.
Format: in vivo
Procedure: An improvement effect for spontaneous alternation behavior caused by Scoporamine or MK-801 in mice
An effect of the compound (I) on improvement on cognitive impairment was evaluated by using a known performance test method as a model with short-term learning disorder.
The compound to be tested was administered orally 10 to 30 minutes before the test, and 0.5 mg/kg Scoporamine or 0.15 mg/kg MK-801 (for a normal group, physiological saline) was administered intraperitoreally, and the test was performed after 20 minutes. […]
A mouse was placed at the end of one arm of a Y-maze having arms with the same length in three directions, and then explored freely and the number of arm entries was counted for 8 minutes. […] The ratio of the number of the behaviors to the total number of entries was calculated as an alternation rate by the following formula: […]
If a significant difference between the normal group and the control group (Student's t test) was approved in the alternation rate (%), it was considered to have learning disorder by the administration of Scoporamine or MK-801. By carrying out a Dunnett's test on the group administered with the compound to be tested relative to the control group, the presence or absence of an action of the compound to be tested on learning disorder was evaluated. […]

Q: `NC(N)=NC(=O)c1ccc2c(c1)C(c1ccccc1)=CCC2` [Example 2-37] was tested. Which “improvement of alternation rate impaired by Scoporamine” value did it give?
A: significantly improved

What follows are molecules tested on Male ICR mouse (assay: Hyperactivity caused by methamphetamine (MAP) in mice, infrared motion measurement). Details: dose of 0.03 mg/kg, oral; MAP 1 mg/kg i.p.; P<0.05.
Format: in vivo
Procedure: as §1, §2, §3, §4

Q: For `NC(N)=NC(=O)c1ccc2c(c1)C(c1ccccc1)=CCC2` [Example 2-37], which “inhibition of hyperactivity caused by methamphetamine” value is on record?
A: significantly inhibited
